This is an account of results in patent US10946024B2, “Method for treating cancer” (Epizyme, Inc., priority 2014, dated 2021).

The structures appear in SMILES notation.

Data set [1] relates to ATF3, EGR1 expression in SW982 cells. Description: Gene expression changes in vitro by RT-PCR, normalized to GAPDH. Format: cell-based, human. Conditions: SW982 in vitro culture. How it is done:
HS-SY-II and SW982 cells were treated with EZH2 inhibitors (Compound A or EPZ-011989) and collected at the indicated time points. Total RNA isolation and cDNA synthesis were performed using the TaqMan Gene Expression Cells-to-CT kit (4399002, Life technologies) according to the manufacturer's protocol. ATF3, EGR1, CDKN2A and GAPDH expression were analyzed by using the TaqMan Gene Expression Assays (Life technologies, 4331182) and the TaqMan Probes (Hs00231069_m1, Hs00152928_m1, Hs00233365_m1, and Hs99999905_m1, respectively).

For data set [2], the system named is CDKN2A expression in HS-SY-II xenograft. Description: Gene expression changes in vivo in HS-SY-II xenograft by RT-PCR. Also noted: species or system mice. Conditions: 500 mg/kg oral twice daily for 7 days. On the procedure: Tumor samples were collected at approximately 3 hours after the last dose from mice used in analysis for PK values and PD alterations.

A short description of data set [3]: Plasma concentrations in HS-SY-II xenograft model (LC/MS/MS). It is filed as in vivo, mice. Conditions: oral twice daily for 7 days; 5 minutes before and 3 hours after the last dose. How it is done: HS-SY-II cells were harvested during mid-log phase growth, and resuspended in Hank balanced salt solution with 50% Matrigel (BD Biosciences). Balb/C-nu mice (Charles River Laboratories Japan) received 1×10^7 cells (0.1 mL cell suspension) subcutaneously in the right flank. Mice carrying tumors of approximately 200 mm^3 (31 days after injection) were sorted into treatment groups with similar mean tumor volumes. Compound A or vehicle (0.5% MC+0.1% Tween-80 in water) was administered at the indicated doses on twice a day for 7 days by oral gavage. Each dose was delivered in a volume of 0.2 mL/20 g mouse (10 mL/kg), and adjusted for the last recorded weight of individual animals. Peripheral blood samples were collected at approximately 5 minutes before and 3 hours after the last dose from Compound A-treated mice. After obtaining plasma samples by centrifugation, the analysis for plasma concentrations of Compound A was conducted by the liquid chromatography-tandem mass spectrometry (LC/MS/MS) method. The UPLC system (Acquity, Waters) equipped with a mass spectrometer (Quattro premier, MICROMASS) was used for quantification of Compound A. The concentrations are plotted (n=5) in FIG. 7A. Each bar represents a mean of plasma concentration in each group.

The test system of data set [4] is HLA genes, Fas, KLRD1 expression in synovial sarcoma PDX tumors. Conditions: 400 mg/kg BID, PDX tumors harvested on day 35.
Method: Tumor samples were collected at approximately 3 hours after the last dose from mice used in analysis for PK values and PD alterations. The tumor samples were stored using RNAlater (AM7020, Life technologies). Total RNA isolation and the reverse transcription were performed by RNeasy Mini Kit (74104, Qiagen) and High capacity cDNA Reverse Transcription kit (4368814, Life technologies) according to the manufacturer's instruction. The cDNA samples were used for real time-PCR as described above. The expression levels were adjusted to GAPDH and expressed as fold changes to vehicle control (FIG. 9). Additionally or alternatively, total RNAs were isolated from frozen tumor samples. The TruSeq™ RNA Sample Prep Kit (Illumina) was used to build cDNA library for paired-end sequencing on the Illumina HiSeq (details described in Illumina TruSeq RNA Sample Preparation Guide). […] Paired-end reads from ˜50M clusters per sample were generated using TruSeq SBS kit on the Illumina HiSeq.
Raw sequencing reads in FASTQ format was aligned to human genome hg19 as well as mouse genome mm10. Transcriptomic quantification was carried out with the RSEM v1.1.13 program, using USCS KnownGene transcriptome as reference. […]
The patient-derived xenograft (PDX) models CTG-0331 and CTG-0771 are low passage Champions TumorGraft™ models representing human synovial sarcoma. […] Tumor size was measured twice weekly. […]

Turning to `CCN(c1cc(-c2ccc(CN3CCOCC3)cc2)cc(C(=O)NCc2c(C)cc(C)[nH]c2=O)c1C)C1CCOCC1` [Compound A], the “ATF3 and EGR1 expression” value in data set [1] is “not in SW982”. In data set [2], the “CDKN2A expression in tumor” value is on record as “significantly upregulated”. Besides, the plasma concentrations result in data set [3] is “Dose dependent exposure”. Further, the “expression of HLA genes, Fas, and KLRD1 relative to vehicle” value in data set [4] is “increased”.
